This experiment has as its target CFTR-mediated chloride transport (Homo sapiens, UniProt P13569). Briefly: Corrector Assay A - membrane potential dye assay (enteroid cells). The following applies: for Corrector Assay A % activity: % of chloride transport of triple combination control (1 μM (14S)-dispiro macrocycle + 3 μM tezacaftor + 300 nM ivacaftor); for pEC50: read-out: Corrector Assay A EC50, human intestinal enteroid cells, 18-24 h incubation, acute 10 μM forskolin + 300 nM ivacaftor.

pEC50: −log10 of the molar value.

For orientation: pEC50 means the negative decadic logarithm of the EC50, by convention in mol/L. As for `CC1(C)C[C@@H]2CC[C@@H](c3ccccn3)Nc3cccc(n3)S(=O)(=O)NC(=O)c3ccc(Cc4ccccc4)nc3N1C2` [Compound 160], the “Corrector Assay A % activity” value is “++ (++ is 30-60%)” and the pEC50 was > 6.00.
On to `CC(C)O[C@H]1C[C@@H](Oc2ccc3c(n2)N2C[C@@H](CC[C@H](c4ccccn4)Nc4cccc(n4)S(=O)(=O)NC3=O)CC2(C)C)C1` [Compound 161, (14S,17R)-12,12-dimethyl-17-(pyridin-2-yl)-8-[(1s,3S)-3-(propan-2-yloxy)cyclobutoxy]-2λ^6-thia-3,9,11,18,23-pentaazatetracyclo[17.3.1.111,14.05,10]tetracosa-1(22),5,7,9,19(23),20-hexaene-2,2,4-trione], for which the “Corrector Assay A % activity” value is “+++ (+++ is >60%)” and the pEC50 was > 6.00.
The like results for `CC(C)O[C@H]1C[C@@H](Oc2ccc3c(n2)N2C[C@@H](CC[C@@H](c4ccccn4)Nc4cccc(n4)S(=O)(=O)NC3=O)CC2(C)C)C1` [Compound 162] were, in that order, “++ (++ is 30-60%)” and > 6.00.
Take `CC(C)(C)c1ccc2c(n1)N1C[C@@H](CCC(c3ccc(N4CCCC4)cn3)Nc3cccc(n3)S(=O)(=O)NC2=O)CC1(C)C` (stereo partly drawn) [Compound 163]: the “Corrector Assay A % activity” value is “++ (++ is 30-60%)” and the pEC50 is > 6.00.
The like results for `CC(C)(C)c1ccc2c(n1)N1C[C@@H](CCC(c3ccc(N4CCCC4)cn3)Nc3cccc(n3)S(=O)(=O)NC2=O)CC1(C)C` (stereo partly drawn) [Compound 164, (14S)-8-tert-butyl-12,12-dimethyl-17-[5-(pyrrolidin-1-yl)pyridin-2-yl]-2λ^6-thia-3,9,11,18,23-pentaazatetracyclo[17.3.1.111,14.05,10]tetracosa-1(23),5(10),6,8,19,21-hexaene-2,2,4-trione] were, in that order, “+++ (+++ is >60%)” and > 6.00.
`CC(C)(C)c1ccc2c(n1)N1C[C@@H](CCC(c3ccc(C4CNC4)cn3)Nc3cccc(n3)S(=O)(=O)NC2=O)CC1(C)C` (stereo partly drawn) [Compound 165]: the “Corrector Assay A % activity” value is reported as “++ (++ is 30-60%)” and the pEC50 was > 6.00.
The like results for `CC(C)(C)c1ccc2c(n1)N1C[C@@H](CCC(c3ccc(C4CNC4)cn3)Nc3cccc(n3)S(=O)(=O)NC2=O)CC1(C)C` (stereo partly drawn) [Compound 166] were, in that order, “+++ (+++ is >60%)” and > 6.00.
For `CC(C)(C)c1ccc2c(n1)N1C[C@@H](CCC(c3ccc(C4=CCOCC4)cn3)Nc3cccc(n3)S(=O)(=O)NC2=O)CC1(C)C` (stereo partly drawn) [Compound 167] the same measures were “++ (++ is 30-60%)” and > 6.00.
The like results for `CC(C)(C)c1ccc2c(n1)N1C[C@@H](CCC(c3ccc(C4=CCOCC4)cn3)Nc3cccc(n3)S(=O)(=O)NC2=O)CC1(C)C` (stereo partly drawn) [Compound 168] were, in that order, “+++ (+++ is >60%)” and > 6.00.
In the case of `CC(C)(C)c1ccc2c(n1)N1C[C@@H](CCC(c3ccc(C4CC4)cn3)Nc3cccc(n3)S(=O)(=O)NC2=O)CC1(C)C` (stereo partly drawn) [Compound 169], the “Corrector Assay A % activity” value is on record as “++ (++ is 30-60%)” and the pEC50 is > 6.00.
For `CC(C)(C)c1ccc2c(n1)N1C[C@@H](CCC(c3ccc(C4CC4)cn3)Nc3cccc(n3)S(=O)(=O)NC2=O)CC1(C)C` (stereo partly drawn) [Compound 170], the “Corrector Assay A % activity” value is reported as “+++ (+++ is >60%)” and the pEC50 was > 6.00.
The like results for `CC(C)(C)c1ccc2c(n1)N1C[C@@H](CC[C@@H](c3cccc(N4CCCCC4)n3)Nc3cccc(n3)S(=O)(=O)NC2=O)CC1(C)C` [Compound 173] were, in that order, “+ (+ is <30%)” and > 6.00.
With `CC(C)(C)c1ccc2c(n1)N1C[C@@H](CC[C@H](c3cccc(N4CCCCC4)n3)Nc3cccc(n3)S(=O)(=O)NC2=O)CC1(C)C` [Compound 174], the “Corrector Assay A % activity” value is listed as “+++ (+++ is >60%)” and the pEC50 was > 6.00.
The like results for `CC(C)(C)c1ccc2c(n1)N1C[C@@H](CCC(c3ccc(N4CCC4)cn3)Nc3cccc(n3)S(=O)(=O)NC2=O)CC1(C)C` (stereo partly drawn) [Compound 175] were, in that order, “+++ (+++ is >60%)” and > 6.00.
Consider `CC(C)(C)C#Cc1ccc2c(n1)N1C[C@@H](CC[C@@H](c3ccccn3)Nc3cccc(n3)S(=O)(=O)NC2=O)CC1(C)C` [Compound 176], for which the “Corrector Assay A % activity” value is on record as “++ (++ is 30-60%)” and the negative-log EC50 (pEC50) is > 6.00.
For the compound `CC(C)(C)C#Cc1ccc2c(n1)N1C[C@@H](CC[C@H](c3ccccn3)Nc3cccc(n3)S(=O)(=O)NC2=O)CC1(C)C` [Compound 177], the “Corrector Assay A % activity” value is recorded as “+++ (+++ is >60%)” and the pEC50 was > 6.00.
As to `CC(C)Cc1ccc(C2CC[C@@H]3CN(c4nc(C(C)(C)C)ccc4C(=O)NS(=O)(=O)c4cccc(n4)N2)C(C)(C)C3)nc1` (stereo partly drawn) [Compound 180], the “Corrector Assay A % activity” value is given as “+++ (+++ is >60%)” and the negative-log EC50 (pEC50) is > 6.00.
As for `CC(C)Cc1ccc(C2CC[C@@H]3CN(c4nc(C(C)(C)C)ccc4C(=O)NS(=O)(=O)c4cccc(n4)N2)C(C)(C)C3)nc1` (stereo partly drawn) [Compound 181, (14S)-8-tert-butyl-12,12-dimethyl-17-[5-(2-methylpropyl)pyridin-2-yl]-2λ^6-thia-3,9,11,18,23-pentaazatetracyclo[17.3.1.111,14.05,10]tetracosa-1(23),5(10),6,8,19,21-hexaene-2,2,4-trione], the “Corrector Assay A % activity” value is recorded as “++ (++ is 30-60%)” and the pEC50 is > 6.00.
Take `CC(C)=Cc1ccc(C2CC[C@@H]3CN(c4nc(C(C)(C)C)ccc4C(=O)NS(=O)(=O)c4cccc(n4)N2)C(C)(C)C3)nc1` (stereo partly drawn) [Compound 182]: the “Corrector Assay A % activity” value is reported as “+++ (+++ is >60%)” and the pEC50 was > 6.00.
The like results for `CC(C)=Cc1ccc(C2CC[C@@H]3CN(c4nc(C(C)(C)C)ccc4C(=O)NS(=O)(=O)c4cccc(n4)N2)C(C)(C)C3)nc1` (stereo partly drawn) [Compound 183, (14S)-8-tert-Butyl-12,12-dimethyl-17-[5-(2-methylprop-1-en-1-yl)pyridin-2-yl]-2λ^6-thia-3,9,11,18,23-pentaazatetracyclo[17.3.1.111,14.05,10]tetracosa-1(23),5(10),6,8,19,21-hexaene-2,2,4-trione] were, in that order, “++ (++ is 30-60%)” and > 6.00.
Consider `CC(C)(C)c1ccc2c(n1)N1C[C@@H](CCC(c3ccc(N4CCCCC4)cn3)Nc3cccc(n3)S(=O)(=O)NC2=O)CC1(C)C` (stereo partly drawn) [Compound 184], for which the “Corrector Assay A % activity” value is listed as “+++ (+++ is >60%)” and the pEC50 is > 6.00.
For `CC(C)(C)c1ccc2c(n1)N1C[C@@H](CCC(c3ccc(N4CCCCC4)cn3)Nc3cccc(n3)S(=O)(=O)NC2=O)CC1(C)C` (stereo partly drawn) [Compound 185] the same measures were “++ (++ is 30-60%)” and > 6.00.
For `CN(C)CCNc1cccc([C@@H]2CC[C@@H]3CN(c4nc(C(C)(C)C)ccc4C(=O)NS(=O)(=O)c4cccc(n4)N2)C(C)(C)C3)n1` [Compound 188] the same measures were “++ (++ is 30-60%)” and > 6.00.
For `CN(C)CCNc1cccc([C@H]2CC[C@@H]3CN(c4nc(C(C)(C)C)ccc4C(=O)NS(=O)(=O)c4cccc(n4)N2)C(C)(C)C3)n1` [Compound 189] the same measures were “++ (++ is 30-60%)” and > 6.00.

For the origin of these results see US20220313698A1, “MODULATORS OF CYSTIC FIBROSIS TRANSMEMBRANE CONDUCTANCE REGULATOR” (Vertex Pharmaceuticals Incorporated, priority 2019, published 2022).
